Data published in patent publication US11891365B2, “3-alkyl-4-amido-bicyclic [4,5,0] hydroxamic acids as HDAC inhibitors” (Valo Health, Inc., priority 2015, dated 2024).

Each compound was assayed against T1, Full length human recombinant HDAC6 protein (Homo sapiens, UniProt Q9UBN7) (assay: In vitro histone deacetylase assay: enzymatic HDAC6 electrophoretic mobility shift assay). Settings: 1 nM enzyme, 2 μM peptide substrate RHKK(Ac)-NH2, 25° C., 12 concentrations; read-out: Inhibitory Concentration (IC50) Values against HDAC6, Activity Range.
T1 sequence (Q9UBN7 1-1215): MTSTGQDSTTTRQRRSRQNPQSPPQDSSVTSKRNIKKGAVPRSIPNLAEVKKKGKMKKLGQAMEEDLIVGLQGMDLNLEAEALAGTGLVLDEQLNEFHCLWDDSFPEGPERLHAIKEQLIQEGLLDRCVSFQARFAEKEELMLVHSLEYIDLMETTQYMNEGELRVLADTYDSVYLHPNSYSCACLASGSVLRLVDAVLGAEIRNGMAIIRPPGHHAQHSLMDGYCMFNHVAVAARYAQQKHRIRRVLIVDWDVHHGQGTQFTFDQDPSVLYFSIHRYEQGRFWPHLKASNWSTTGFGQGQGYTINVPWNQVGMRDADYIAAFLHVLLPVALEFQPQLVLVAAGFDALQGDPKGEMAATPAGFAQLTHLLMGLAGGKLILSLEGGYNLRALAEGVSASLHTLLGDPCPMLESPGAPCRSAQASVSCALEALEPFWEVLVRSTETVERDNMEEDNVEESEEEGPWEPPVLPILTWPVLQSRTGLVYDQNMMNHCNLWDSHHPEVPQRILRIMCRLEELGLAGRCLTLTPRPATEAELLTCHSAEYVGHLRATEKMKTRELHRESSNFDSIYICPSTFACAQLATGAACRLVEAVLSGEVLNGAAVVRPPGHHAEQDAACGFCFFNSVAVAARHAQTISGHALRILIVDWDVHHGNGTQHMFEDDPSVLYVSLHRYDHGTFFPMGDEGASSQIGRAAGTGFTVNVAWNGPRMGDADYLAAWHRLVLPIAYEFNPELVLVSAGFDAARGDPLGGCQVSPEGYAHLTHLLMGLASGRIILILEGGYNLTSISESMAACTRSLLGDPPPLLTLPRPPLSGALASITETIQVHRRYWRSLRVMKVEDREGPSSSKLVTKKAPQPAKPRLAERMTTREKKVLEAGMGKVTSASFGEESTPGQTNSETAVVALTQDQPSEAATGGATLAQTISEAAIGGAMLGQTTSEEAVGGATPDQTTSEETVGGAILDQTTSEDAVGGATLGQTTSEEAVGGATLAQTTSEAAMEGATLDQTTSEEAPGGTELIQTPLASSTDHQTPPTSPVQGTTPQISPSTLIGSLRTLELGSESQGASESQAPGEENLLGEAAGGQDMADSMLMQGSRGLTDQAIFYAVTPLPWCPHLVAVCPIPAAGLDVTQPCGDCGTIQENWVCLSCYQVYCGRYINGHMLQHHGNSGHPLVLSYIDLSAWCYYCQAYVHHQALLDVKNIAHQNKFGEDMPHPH
Type: biochemical
Experimental: The enzymatic HDAC6 assay was performed using electrophoretic mobility shift assay. […] The enzymatic reactions were assembled in 384 well plates in a total volume of 25 μL in a reaction buffer composing: 100 mM HEPES, pH7.5, 25 mM KCl, 0.1% bovine serum albumin, 0.01% Triton X-100, 1% DMSO (from compounds) 2 μM of the fluorescently labeled peptide substrate and enzyme. The enzyme was added at a final concentration of 1 nM. The peptide substrate RHKK(Ac)—NH2 was used. The compounds were tested at 12 concentrations spaced by 3× dilution intervals. Negative control samples ([…] in the absence of inhibitor) and positive control samples (100%-inhibition) were assembled in replicates of four in each assay plate. The reactions were incubated at 25° C. and quenched by the addition of 45 μL of termination buffer (100 mM HEPES, pH 7.5, 0.01% Triton X-100, 0.05% SDS).
The terminated assay plates were analyzed on LabChip® 3000 microfluidic electrophoresis instrument (Perkin Elmer/Caliper Life Sciences). The fluorescence intensity of the electrophoretically separated de-acetylated product and substrate peptide was measured. Activity in each sample was determined as the product to sum ratio (PSR): P/(S+P), where P is the peak height of the product peptide and S is the peak height of the substrate peptide. Percent inhibition (Pinh) is determined using the following equation:
Pinh=(PSR0%−PSRinh)/(PSR0%−PSR100%)*100, where PSRinh is the product sum ratio in the presence of inhibitor, PSR0% is the average product sum ration in the absence of inhibitor and PSR100% is the average product sum ratio in 100%-inhibition control samples. The IC50 values of inhibitors were determined by fitting the %-inhibition curves with 4 parameter dose-response model using XLfit 4 software.

Row | IC50 [nM] | Compound
1 | ≤ 100 | CO[C@H]1C[C@H](C(=O)N2Cc3ccc(C(=O)NO)cc3OC[C@@H]2C)C1
2 | ≤ 100 | CO[C@H]1C[C@@H](C(=O)N2Cc3ccc(C(=O)NO)cc3OC[C@@H]2C)C1
3 | ≤ 100 | C[C@H]1COc2cc(C(=O)NO)ccc2CN1C(=O)[C@H]1C[C@H](Oc2ccccc2)C1 (single isomer, unassigned)
4 | ≤ 100 | C[C@H]1COc2cc(C(=O)NO)ccc2CN1C(=O)C1CCC(OC(F)(F)F)CC1 (single isomer, unassigned) [listing 1 of 2 here]
5 | ≤ 100 | C[C@H]1COc2cc(C(=O)NO)ccc2CN1C(=O)C1CC(Oc2ccccc2)C1 (single isomer, unassigned)
6 | ≤ 100 | C[C@H]1COc2cc(C(=O)NO)ccc2CN1C(=O)C1CCC(OC(F)(F)F)CC1 (single isomer, unassigned) [listing 2 of 2 here]
7 | ≤ 100 | CO[C@H]1CC[C@H](C(=O)N2CCOc3cc(C(=O)NO)ccc3[C@@H]2C)CC1 (single isomer, unassigned)
8 | ≤ 100 | COC1CCC(C(=O)N2Cc3ccc(C(=O)NO)cc3OC[C@@H]2C)CC1 (single isomer, unassigned) [listing 1 of 2 here]
9 | ≤ 100 | COC1CCC(C(=O)N2Cc3ccc(C(=O)NO)cc3OC[C@@H]2C)CC1 (single isomer, unassigned) [listing 2 of 2 here]
10 | ≤ 100 | CO[C@H]1CC[C@@H](C(=O)N2CCOc3cc(C(=O)NO)ccc3[C@@H]2C)CC1 (single isomer, unassigned)
11 | ≤ 100 | O=C(NO)c1ccc2c(c1)OCCN(C(=O)C1CCS(=O)(=O)CC1)C2 [4-(1,1-dioxidotetrahydro-2H-thiopyran-4-carbonyl)-N-hydroxy-2,3,4,5-tetrahydrobenzo[f][1,4]oxazepine-8-carboxamide]
12 | ≤ 100 | O=C(NO)c1ccc2c(c1)OCCN(C(=O)C1(c3ccccc3Cl)CC1)C2 [4-(1-(2-chlorophenyl)cyclopropane-1-carbonyl)-N-hydroxy-2,3,4,5-tetrahydrobenzo[f][1,4]oxazepine-8-carboxamide]
13 | ≤ 100 | O=C(NO)c1ccc2c(c1)OCCN(C(=O)C1(c3cccc(Cl)c3)CC1)C2 [4-(1-(3-chlorophenyl)cyclopropane-1-carbonyl)-N-hydroxy-2,3,4,5-tetrahydrobenzo[f][1,4]oxazepine-8-carboxamide]
14 | ≤ 100 | O=C(NO)c1ccc2c(c1)OCCN(C(=O)C1(c3ccc(Cl)cc3)CC1)C2 [4-(1-(4-chlorophenyl)cyclopropane-1-carbonyl)-N-hydroxy-2,3,4,5-tetrahydrobenzo[f][1,4]oxazepine-8-carboxamide]
15 | ≤ 100 | O=C(NO)c1ccc2c(c1)OCCN(C(=O)C1(c3ccc(F)cc3)CC1)C2 [4-(1-(4-fluorophenyl)cyclopropane-1-carbonyl)-N-hydroxy-2,3,4,5-tetrahydrobenzo[f][1,4]oxazepine-8-carboxamide]
16 | ≤ 100 | O=C(NO)c1ccc2c(c1)OCCN(C(=O)C1(Cn3ccnc3)CC1)C2 [4-(1-((1H-imidazol-1-yl)methyl)cyclopropane-1-carbonyl)-N-hydroxy-2,3,4,5-tetrahydrobenzo[f][1,4]oxazepine-8-carboxamide]

Row | IC50 [nM] | Compound
17 | ≤ 100 | O=C(NO)c1ccc2c(c1)OCCN(C(=O)C1(Cn3cccn3)CC1)C2 [4-(1-((1H-pyrazol-1-yl)methyl)cyclopropane-1-carbonyl)-N-hydroxy-2,3,4,5-tetrahydrobenzo[f][1,4]oxazepine-8-carboxamide]
18 | ≤ 100 | CC(=O)N1CCCC(C(=O)N2CCOc3cc(C(=O)NO)ccc3C2)C1 (centres unmarked) [4-(1-acetylpiperidine-3-carbonyl)-N-hydroxy-2,3,4,5-tetrahydrobenzo[f][1,4]oxazepine-8-carboxamide]
19 | 100 to 500 | CC(=O)N1CCC(C(=O)N2CCOc3cc(C(=O)NO)ccc3C2)C1 (centres unmarked) [4-(1-acetylpyrrolidine-3-carbonyl)-N-hydroxy-2,3,4,5-tetrahydrobenzo[f][1,4]oxazepine-8-carboxamide]
20 | ≤ 100 | O=C(NO)c1ccc2c(c1)OCCN(C(=O)C1(Cc3ccccc3)CC1)C2 [4-(1-benzylcyclopropane-1-carbonyl)-N-hydroxy-2,3,4,5-tetrahydrobenzo[f][1,4]oxazepine-8-carboxamide]
21 | 100 to 500 | CC1(C)CC(C(=O)N2CCOc3cc(C(=O)NO)ccc3C2)CCO1 (centres unmarked) [4-(2,2-dimethyltetrahydro-2H-pyran-4-carbonyl)-N-hydroxy-2,3,4,5-tetrahydrobenzo[f][1,4]oxazepine-8-carboxamide]
22 | ≤ 100 | O=C(NO)c1ccc2c(c1)OCCN(C(=O)C1Cc3ccccc3C1)C2 [4-(2,3-dihydro-1H-indene-2-carbonyl)-N-hydroxy-2,3,4,5-tetrahydrobenzo[f][1,4]oxazepine-8-carboxamide]
23 | 100 to 500 | O=C(NO)c1ccc2c(c1)OCCN(C(=O)c1ccc3c(c1)CCO3)C2 [4-(2,3-dihydrobenzofuran-5-carbonyl)-N-hydroxy-2,3,4,5-tetrahydrobenzo[f][1,4]oxazepine-8-carboxamide]
24 | 100 to 500 | O=C(NO)c1ccc2c(c1)OCCN(C(=O)C1CC3(CCNCC3)c3ccccc31)C2 (centres unmarked) [4-(2,3-dihydrospiro[indene-1,4′-piperidine]-3-carbonyl)-N-hydroxy-2,3,4,5-tetrahydrobenzo[f][1,4]oxazepine-8-carboxamide]
25 | 100 to 500 | COc1ccc(C(=O)N2CCOc3cc(C(=O)NO)ccc3C2)c(OC)c1 [4-(2,4-dimethoxybenzoyl)-N-hydroxy-2,3,4,5-tetrahydrobenzo[f][1,4]oxazepine-8-carboxamide]
26 | 100 to 500 | Cc1cccc(C)c1C(=O)N1CCOc2cc(C(=O)NO)ccc2C1 [4-(2,6-dimethylbenzoyl)-N-hydroxy-2,3,4,5-tetrahydrobenzo[f][1,4]oxazepine-8-carboxamide]
27 | > 500 | O=C(NO)c1ccc2c(c1)OCCN(C(=O)CN1CCS(=O)(=O)CC1)C2 [4-(2-(1,1-dioxidothiomorpholino)acetyl)-N-hydroxy-2,3,4,5-tetrahydrobenzo[f][1,4]oxazepine-8-carboxamide]
28 | > 500 | CC(C(=O)N1CCOc2cc(C(=O)NO)ccc2C1)N1CCS(=O)(=O)CC1 (centres unmarked) [4-(2-(1,1-dioxidothiomorpholino)propanoyl)-N-hydroxy-2,3,4,5-tetrahydrobenzo[f][1,4]oxazepine-8-carboxamide]
29 | 100 to 500 | CC(C)(C(=O)N1CCOc2cc(C(=O)NO)ccc2C1)c1ccc2c(c1)OCCO2 [4-(2-(2,3-dihydrobenzo[b][1,4]dioxin-6-yl)-2-methylpropanoyl)-N-hydroxy-2,3,4,5-tetrahydrobenzo[f][1,4]oxazepine-8-carboxamide]
30 | 100 to 500 | COc1ccc(C(C)(C)C(=O)N2CCOc3cc(C(=O)NO)ccc3C2)cc1OC [4-(2-(3,4-dimethoxyphenyl)-2-methylpropanoyl)-N-hydroxy-2,3,4,5-tetrahydrobenzo[f][1,4]oxazepine-8-carboxamide]
31 | 100 to 500 | O=C(NO)c1ccc2c(c1)OCCN(C(=O)Cc1cc(C(F)(F)F)cc(C(F)(F)F)c1)C2 [4-(2-(3,5-bis(trifluoromethyl)phenyl)acetyl)-N-hydroxy-2,3,4,5-tetrahydrobenzo[f][1,4]oxazepine-8-carboxamide]
32 | 100 to 500 | O=C(NO)c1ccc2c(c1)OCCN(C(=O)COc1cccc(Cl)c1)C2 [4-(2-(3-chlorophenoxy)acetyl)-N-hydroxy-2,3,4,5-tetrahydrobenzo[f][1,4]oxazepine-8-carboxamide]
